Test results published in patent US5554620A, “Substituted 6,11-ethano-6,11-dihydrobenzo[b] quinolizinium salts and compositions and methods of use thereof” (Sterling Winthrop Inc., priority 1994, dated 1996).

molecular target: PCP receptor; test: [3H]TCP radioreceptor assay (binding to PCP recognition sites); parameters: species or system rat (male Sprague-Dawley, whole brain); conditions: [3H]TCP approx. 1 nM, rat brain membranes; mean of at least two determinations
Description: [^3 H]TCP Radioreceptor Assay
[^3 H]TCP binding to PCP recognition sites was performed as described by Vignon et al. Brain Research 1983, 280, 194-197. Male Sprague-Dawley rats were sacrificed by decapitation, and whole brains were homogenized in 10 volumes (wt/vol) of cold Tris-HCl buffer (50 mM, pH 7.7) using a Brinkmann Polytron (setting 6, 30 sec). The homogenate was centrifuged at 40,000×g for 10 min at 4° C. The supernatant was decanted, and the homogenization and centrifugation steps were repeated twice as described above. Following this, the pellet was resuspended in Tris-HCl (5 mM, pH 7.7) at a tissue concentration of 0.5-0.75 g/mL, and one mL aliquots were frozen at -70° C. until use. The binding characteristics for PCP recognition sites were not altered by the freezing of membrane suspensions.
On the day of the assay, membrane aliquots were thawed, resuspended in fresh 5 mM Tris-HCl buffer at a tissue concentration of 1 mg/mL, and stored on ice until use. Each assay tube contained 100 μl of [^3 H]TCP at a final concentration of approximately 1 nM, 100 μL of various concentrations of the compounds of interest, 500 μL of the tissue suspension and 300 μL of buffer to a final assay volume of 1 mL and a final protein concentration of 0.5 mg/tube. Non-specific binding was defined by addition of a final concentration of 100 μM PCP to blank tubes. All tubes were incubated at room temperature for 25 min before termination of the reaction by rapid filtration over Whatman GF/B glass fiber filters that had been presoaked in a solution of 0.5% polyethylenimine for at least 1 hr prior to use. Filters were washed with three 4 mL volumes of cold Tris buffer. Following addition of scintillation cocktail, the amount of bound radioactivity was determined by liquid scintillation spectrometry using a Beckman LS 5000TA liquid scintillation counter with an efficiency for tritium of approximately 55%. Inhibition constants (Ki values) were calculated using the EBDA/LIGAND program (McPherson, J. Pharmacol. Meth. 1985, 14, 213-228), purchased from ElsevierBiosoft, Inc. Results are reported as the Ki values (in nM) which are expressed as the mean of at least two separate determinations; or as a percent (%) inhibition of binding at 10 μM.

Q: How did the Ki turn out when “6,11-ethano-12,12-di(3-furyl)-10-stearyloxy-6,11-dihydrobenzo[b]quinolizinium chloride [Example 163]” was run?
A: 7.54 nM

Q: With `COc1cccc(C23c4ccccc4CC2C2c4ccccc4C3c3cccc[n+]32)c1` (single isomer, unassigned) [5(d), 6,11[2',3']-3'-(3-methoxyphenyl)-indanyl]16,11-dihydrobenzo[b]quinolizinium hexafluorophosphate] as the compound, how does the Ki read?
A: 22 nM

Q: With `CC12CC(c3ccccc3)(c3ccccc3)C(c3ccccc31)c1cccc[n+]12` (single isomer, unassigned) [20(h), 6,11-ethano-12,12-diphenyl-6-methyl-6,11-dihydrobenzo[b]quinolizinium chloride 1/2 hydrate] as the compound, how does the Ki read?
A: 7.15 nM

Q: How did the Ki turn out when `CCOC1(c2ccoc2)C2c3ccccc3C(C1C)[n+]1ccccc12` (single isomer, unassigned) [65(c), 6,11-ethano-12-(3-furyl)-12-ethoxy-13-methyl-6,11-dihydrobenzo[b]quinolizinium hexafluorophosphate] was run?
A: 2.8 nM

Q: For `c1ccc2c(c1)C1C3CCc4occc4C3(c3ccoc3)C2c2cccc[n+]21` (single isomer, unassigned) [69(c), 6,11[[5',4']-4'-(3-furyl)-4,5,6,7-tetrahydrobenzofuryl]-6,11-dihydrobenzo[b]quinolizinium perchlorate], which Ki is on record?
A: 0.9 nM

Q: For `c1ccc2c(c1)CC1C2C2c3ccccc3C1[n+]1ccccc12` (single isomer, unassigned) [Example 2(a), 6,11[[2',3']-indanyl]6,11-dihydrobenzo[b]quinolizinium chloride], which Ki is on record?
A: 123 nM

Q: For `c1ccc2c(c1)CC1C2C2c3ccccc3C1[n+]1ccccc12` (single isomer, unassigned) [Example 2(b), 6,11[[2',3']indanyl]6,11-dihydrobenzo[b]quinolizinium chloride], which Ki is on record?
A: 262 nM

Q: For `C#CC1(c2ccccc2)CC2c3ccccc3C1c1cccc[n+]12` (single isomer, unassigned) [Example 56, 6,11-ethano-12-phenyl-12-ethynyl-6,11-dihydrobenzo[b]quinolizinium hexafluorophosphate], which Ki is on record?
A: 56 nM

Q: `Cc1ccc(S(=O)(=O)n2nccc2C2(c3ccoc3)CC3c4ccccc4C2c2cccc[n+]23)cc1` (single isomer, unassigned) [Example 184(c), 6,11-ethano-12-(3-furyl)-12-[1-(p-toluenesulfonyl)pyrazol-5-yl]-6,11-dihydrobenzo[b]quinolizinium bromide] was tested. Which Ki did it give?
A: 12900 nM

Q: How did the Ki turn out when `O=[N+]([O-])c1cccc2c1C1CC(c3ccoc3)(c3ccoc3)C2c2cccc[n+]21.[O-][Cl+3]([O-])([O-])[O-]` (single isomer, unassigned) [Example 201(c), 6,11-ethano-12,12-di(3-furyl)-7-nitro-6,11-dihydrobenzo[b]quinolizinium perchlorate] was run?
A: 3430 nM

Q: For `O=[N+]([O-])c1cccc2c1C1c3cccc[n+]3C2CC1(c1ccoc1)c1ccoc1.[O-][Cl+3]([O-])([O-])[O-]` (single isomer, unassigned) [Example 201(d), 6,11-ethano-12,12-di(3-furyl)-10-nitro-6,11-dihydrobenzo[b]quinolizinium perchlorate], which Ki is on record?
A: 49.2 nM

Q: Which Ki does the source give for `COc1ccc2c(c1)C1(c3ccccc3)C3c4ccccc4C(C1C2)[n+]1ccccc13` (stereo not shown) [3(d), 6,11[[2',3']-3'-phenyl-6'-methoxyindanyl]6,11-dihydrobenzo[b]quinoliziniumhexafluorophosphate] here?
A: 14.1 nM

Q: `COc1cccc2c1CC1C3c4ccccc4C(c4cccc[n+]43)C21c1ccccc1` (stereo not shown) [4(E), 6,11[[2',3']-3'-phenyl-7'-methoxy-indanyl]16,11-dihydrobenzo[b]quinolizinium hexafluoro-phosphate] was tested. Which Ki did it give?
A: 5870 nM

Q: `COc1cccc(C23c4ccccc4CC2C2c4ccccc4C3c3cccc[n+]32)c1` (stereo not shown) [5(c), 6.11[[2',3']-3'-(3-methoxyphenyl)-indanyl]6,11-dihydrobenzo[b]quinolizinium hexafluorophosphate] was tested. Which Ki did it give?
A: 13.3 nM

Q: For `c1ccc2c(c1)CC1C3c4ccccc4C(c4cccc[n+]43)C21c1ccoc1` (stereo not shown) [6(c), 6,11[[2',3']-3'-(3-furyl)-indanyl]6,11-dihydrobenzo[b]quinolizinium hexafluorophosphate], which Ki is on record?
A: 1.19 nM

Q: With `c1ccc2c(c1)C1C3CCc4occc4C3(c3ccoc3)C2c2cccc[n+]21` (stereo not shown) [7(c), 6,11-[5',4"]-4'-(3-furyl)-4',5',6',7'-tetrahydrobenzofuryl]-6,11-dihydrobenzo[b]quinolizinium chloride] as the compound, how does the Ki read?
A: 1.1 nM

Q: For `Cc1noc2c1CCC1C3c4ccccc4C(c4cccc[n+]43)C21c1ccoc1` (stereo not shown) [8(c), 6,11[[6',7']-7'-(3-furyl)-3'-methyl-4',5',6',7'-tetrahydrobenzisoxazol]6,11-dihydrobenzo[b]quinolizinium hexafluorophosphate], which Ki is on record?
A: 117 nM

Q: Which Ki does the source give for `CCOC12c3ccoc3CCC1C1c3ccccc3C2c2cccc[n+]21` (stereo not shown) [9(b), 6,11[[5',4!]-4'-ethoxy-4',5',6',7'-tetrahydrobenzofuryl]-6,11-dihydrobenzo[b]quinolizinium hexafluorophosphate] here?
A: 5.9 nM

Q: With `c1ccc2c(c1)C1C3CCc4occc4C3(c3cc4ccccc4o3)C2c2cccc[n+]21` (stereo not shown) [10(c-G), 6,11[[5',4']-4'-(2-benzofuryl)-4',5',6',7'-tetrahydrobenzofuryl]6,11-dihydrobenzo[b]quinolizinium hexafluorophosphate] as the compound, how does the Ki read?
A: 4450 nM

Q: With `c1ccc2c(c1)C1C3CCc4occc4C3(c3cc4ccccc4o3)C2c2cccc[n+]21` (stereo not shown) [10(c-k), 6,11[[5',4']-4'-(2-benzofuryl)-4',5',6',7'-tetrahydro-benzofuryl]6,11-dihydrobenzo[b]quinolizinium hexafluorophosphate] as the compound, how does the Ki read?
A: 696 nM

Q: With `CCOC1(c2ccoc2)CC2c3ccccc3C1c1cccc[n+]12` (stereo not shown) [11(d), 6,11-ethano-12-(3-furyl)-12-ethoxy-6,11-dihydrobenzo[b]quinolizinium hexafluorophosphate] as the compound, how does the Ki read?
A: 26 nM

Q: How did the Ki turn out when `CCOC1(c2cc(C)oc2C)CC2c3ccccc3C1c1cccc[n+]12` (stereo not shown) [12(b), 6,11-ethano-12-(2,5-dimethyl)-3-furyl]-12-ethoxy-6,11-dihydrobenzo[b]quinolizinium hexafluorophosphate] was run?
A: 253 nM

Q: How did the Ki turn out when `CCOC1(c2ccoc2)CC2(C)c3ccccc3C1c1cccc[n+]12` [13(b), 6,11-ethano-12-(3-furyl)-12-ethoxy-6-methyl-6,11-dihydrobenzo[b]quinolizinium monobenzoyl-D-tartarate] was run?
A: 45 nM

Q: `c1ccc2c(c1)C1C3CCc4sccc4C3(c3ccoc3)C2c2cccc[n+]21` (stereo not shown) [15(c), 6,11[[5',4']-4'-(3-furyl)-4',5',6',7'-tetrahydrothianaphthyl]6,11]-dihydrobenzo[b]quinolizinium hexafluorophosphate] was tested. Which Ki did it give?
A: 1.4 nM

Q: `c1ccc(C2(c3ccccc3)C3c4ccccc4C([n+]4ccccc43)C23CC3)cc1` (stereo not shown) [22(b), 6,11-ethano-12,12-diphenyl-13,13-spirocyclopropyl-6,11-dihydrobenzo[b]quinolizinium chloride] was tested. Which Ki did it give?
A: 9.07 nM

Q: For `c1ccc(C2(c3ccccn3)CC3c4ccccc4C2c2cccc[n+]23)nc1` (stereo not shown) [24(b), 6,11-ethano-12,12-di-(2-pyridyl)-6,11-dihydrobenzo[b]quinolizinium chloride hydrate], which Ki is on record?
A: 8.39 nM

Q: `COc1cccc2c1C1c3cccc[n+]3C2CC1(c1ccccc1)c1ccccc1.[O-][Cl+3]([O-])([O-])[O-]` (stereo not shown) [25(c), 6,11-ethano-12,12-diphenyl-10-methoxy-6,11-dihydrobenzo[b]quinolizinium perchlorate] was tested. Which Ki did it give?
A: 39.3 nM

Q: With `COc1ccc2c(c1)C1c3cccc[n+]3C2CC1(c1ccccc1)c1ccccc1` (stereo not shown) [27(E), 6,11-ethano-12,12-diphenyl-9-methoxy-6,111-dihydrobenzo[b]quinolizinium chloride 1/2 hydrate] as the compound, how does the Ki read?
A: 10.4 nM

same assay, conditions: inhibition of [3H]TCP binding at 10 μM

Q: `Cc1ccc(S(=O)(=O)n2nccc2C2(c3ccoc3)CC3c4ccccc4C2c2cccc[n+]23)cc1.[Br-]` (single isomer, unassigned) [Example 184(d), 6,11-ethano-12-(3-furyl)-12-[1-(p-toluenesulfonyl)pyrazol-5-yl]-6,11-dihydrobenzo[b]quinolizinium bromide] was tested. Which “[3H]TCP percent inhibition @ 10 μm” value did it give?
A: 53%

Q: For `Cc1ccc(S(=O)(=O)n2nccc2C2(c3ccoc3)CC3c4cccc(O)c4C2c2cccc[n+]23)cc1` (single isomer, unassigned) [Example 199(a), 6,11-ethano-12-(3-furyl)-12-[1-(p-toluenesulfon-yl)-pyrazol-5-yl]-10-hydroxy-6,11-dihydrobenzo[b]quinolizinium perchlorate], which “[3H]TCP percent inhibition @ 10 μm” value is on record?
A: 27%

Q: With `Brc1ccc(C2(c3ccc(Br)cc3)CC3c4ccccc4C2c2cccc[n+]23)cc1` (stereo not shown) [23(c), 6,11-ethano-12,12-di-p-bromophenyl-6,11-dihydrobenzo[b]quinolizinium chloride] as the compound, how does the “[3H]TCP percent inhibition @ 10 μm” value read?
A: 22%
